Assay results taken from patent US20240108687A1, “COMPOSITIONS AND METHODS FOR USING COMBINATIONS OF ACTIN-BASED PEPTIDES TO MODULATE CELLULAR BIOACTIVITY” (Virongy L.L.C., priority 2021, published 2024).

Key:
HIV-1 [1] = conditions: cited from earlier work
Influenza A virus (IAV) [2] = conditions: MDCK cells; cited from earlier work
CD324 (E-cadherin) = assay: Surface expression of CD324 on H9 lymphocytes, flow cytometry; type: cell-based, Human; conditions: H9 lymphocytes treated 40 minutes
Protocol: (§1) FIG. 7: Example of actin-based peptide to enhance surface expression of multiple cellular receptors including CD325 (N-cadherin), CD144 (VE-cadherin), and CD324 (E-cadherin), which are surface molecule for cell-cell and cell-extracellular matrix binding and adhesion. (A) Human H9 lymphocyte (derivative of HutT 78 cell, from ATCC) were not treated or treated with an actin-based peptide (N7-20AA) for 40 minutes. Cells were stained on ice with PerCy-Cy5.5-labeled mouse anti-human CD325 antibody. Surface expression of CD325 before and after N7-20AA was quantified by flow cytometer. […] (B) Human H9 lymphocyte were not treated or treated with an actin-based peptide (N7-20AA) for 40 minutes. Cells were stained on ice with FITC-labeled mouse anti-human CD144 antibody. Surface expression of CD144 before and after N7-20AA was quantified by flow cytometer. […] (C) Human H9 lymphocyte were not treated or treated with an actin-based peptide (N7-20AA) for 40 minutes. Cells were stained on ice with PE-labeled mouse anti-human CD324 antibody. Surface expression of CD324 before and after N7-20A was quantified by flow cytometer.

CD144 (VE-cadherin) = assay: Surface expression of CD144 on H9 lymphocytes, flow cytometry; type: cell-based, Human; conditions: H9 lymphocytes treated 40 minutes
Protocol: as §1

CD325 (N-cadherin) = assay: Surface expression of CD325 on H9 lymphocytes, flow cytometry; type: cell-based, Human; conditions: H9 lymphocytes treated 40 minutes
Protocol: as §1

[3] = test system: Lenti-GFP virion particles; assay: Lentiviral virion infectivity after virion incorporation of actin-based peptide; conditions: virions first incubated with peptide to allow virion incorporation; equal amount of virions
Protocol: (A) Uninfected cells control. (B) Lenti-GFP virion particles were used to directly infect target cells. […] An equal amount of virion particles in (B) and (C) were used for infection. Virion infectivity was measured by the percentage of GFP+ cells.

[4] = test system: lenti-GFP vector viral particles; assay: Lentiviral vector (lenti-GFP) transduction of cells, flow cytometry; conditions: B11-20AA plus polybrene, 3 days post infection, viable cells (low PI)
Protocol: Viral transduction of cells was measured at 3 days post infection by flow cytometry. (A) uninfected cells control. (B) Cells were infected with a lenti-GFP vector viral particles. […] Transduction efficiency was measured by the percentage of GFP+ cells. PI,_propidium iodide, was added before flow cytometry for cytotoxicity control (FL3). GFP+ cells were counted only when the cells are viable (low PI staining).

[5] = test system: Murine leukemia virus (MLV), Avian leukosis virus (ALV), and Human immunodeficiency virus (HIV); conditions: HEK293T cells transfected with viral receptors; cited from earlier work
HIV-1 [6] = conditions: cited from earlier work; remark: listed apart in the source
Influenza A virus (IAV) [7] = conditions: cited from earlier work
Measles virus (MeV) = conditions: cited from earlier work
HIV-1 [8] = conditions: CD4 T lymphocytes; cited from earlier work
Influenza A virus (IAV) [9] = conditions: IAV-infected mice vs solvent-treated control; cited from earlier work
Influenza A virus (IAV) [10] = conditions: cited from earlier work; remark: listed apart in the source
HEK293T cells = assay: Liposome transfection of GFP-expression vector DNA with actin-based peptide; type: cell-based; conditions: Lenti-GFP DNA + liposome + peptide, 48 hours post transfection
Protocol: FIG. 6: Example of combination of actin-based peptide with liposome to deliver nucleic acids into cells. HEK293T cells were transfected with a GFP-expression vector DNA (Lenti-GFP) in complex with liposome (DNA+Lipo) or with liposome and an actin-based peptide (N9-A20) (DNA+Lipo+N9). Following transfection, cells were quantified for GFP expression at 48 hours post transfection by flow cytometry.

Compound: C/C1=C/C(=O)O[C@@H]2C[C@@H](CC[C@H](C)/C=C\C=C\CC1)O[C@@](O)([C@@H]1CSC(=O)N1)C2 [latrunculin A]
- gag mRNA localisation (HIV-1 [1]): caused retention of gag mRNA in the nucleus
- Distribution of plasma membrane HA, lipid rafts and actin (Influenza A virus (IAV) [2]): dramatically redistributed

Compound: RRRRRRRR(G/A)0-20QIMFETFNTPAMYVAIQAVL [N7-20AA]
- Surface expression of CD324 (CD324 (E-cadherin)): up-regulation of surface expression of CD324
- Surface expression of CD144 (CD144 (VE-cadherin)): up-regulation of surface expression of CD144
- Surface expression of CD325 (CD325 (N-cadherin)): up-regulation of surface expression of CD325

Compound: RRRRRRRR(G/A)0-20DIKEKLCYVALDFEQEMATA [B11-20AA]
- Virion infectivity (percentage of GFP+ cells) [3]: Enhancement of lentiviral virion infectivity
- Transduction efficiency (percentage of GFP+ cells) [4]: Enhancement of lentiviral vector transduction

Compound: C=C1[C@@H](C)[C@H]2[C@H](Cc3ccccc3)NC(=O)[C@]23[C@H](OC(C)=O)/C=C/[C@@](C)(O)C(=O)[C@@H](C)C/C=C/[C@H]3[C@@H]1O [cytochalasin D]
- Virus surfing [5]: eliminated virus surfing
- Distribution of plasma membrane HA, lipid rafts and actin (Influenza A virus (IAV) [2]): dramatically redistributed
- Accumulation of early and late reverse transcription products (HIV-1 [6]; pretreating cells, not 2 hours post-infection): reduced the accumulation of early and late reverse transcription products
- Reduction of nuclear accumulation of late RT products (HIV-1 [6]; pretreatment): 25 fold
- Titers of filamentous and spherical virions (Influenza A virus (IAV) [7]): dramatically abrogated the titers of the filamentous, but not spherical, virions
- Actin and H co-immunoprecipitation with M protein (Measles virus (MeV)): dramatically reduced actin co-immunoprecipitating with M, while enhancing H co-immunoprecipitation
- Co-transport of M-RNP to the cell surface (Measles virus (MeV)): reduces co-transport of M-RNP to the cell surface
- Rate of cell-cell fusion (Measles virus (MeV)): enhanced the rate of cell-cell fusion

Compound: C/C1=C\[C@H](C)C[C@H](C)OC(=O)C[C@H](c2ccc(O)cc2)NC(=O)[C@@H](Cc2c(Br)[nH]c3ccccc23)N(C)C(=O)[C@H](C)NC(=O)[C@@H](C)C1 [jasplakinolide]
- Distribution of plasma membrane HA, lipid rafts and actin (Influenza A virus (IAV) [2]): dramatically redistributed
- Co-transport of M-RNP to the cell surface (Measles virus (MeV)): not affecting M-RNP co-transport
- Free-virus production (Measles virus (MeV)): blocked free-virus production

Compound: O=C1CSC(c2cccc(Br)c2)N1c1cc(Cl)ccc1O (stereo not drawn) [CK-548]
- CD4 T cell activation and cytotoxicity at effective dosages (HIV-1 [8]): did not affect CD4 T cell activation or induce cytotoxicity
- HIV-1 replication (HIV-1 [8]): dramatically reduced HIV-1 replication

Compound: CCN(CC)CCCC(C)Nc1nc(C)cc(Nc2ccc3nc(C)cc(N)c3c2)n1 (stereo not drawn) [NSC23766]
- Body weights (Influenza A virus (IAV) [9]): increased body weights
- Survivability (Influenza A virus (IAV) [9]): higher survivability
- Titer of IAV in lung tissue (Influenza A virus (IAV) [9]): reduce titer of IAV in lung tissue
- IC50 (Influenza A virus (IAV) [10]; A549 cells, read-out: IC50, reduction of viral replication): 22 µM
- Viral protein expression (Influenza A virus (IAV) [10]): reduced viral protein expression

Compound: Cc1ccc2c(c1)C(=O)C1(O)CCN(c3ccccc3)C1=N2 (stereo not drawn) [blebbistatin]
- Virus surfing [5]: eliminated virus surfing

Compound: RRRRRRRR(G/A)0-20HTVPIYEGYALPHAILRLDL [N9-A20]
- Delivery of nucleic acids into cells (GFP expression) (HEK293T cells): enhances delivery of nucleic acids into cells
